US9144569B2, “Methods of administering an aromatase inhibitor, prostaglandin and GnRH for regulating ovulation in cattle” (UNIVERSITY OF SASKATCHEWAN, priority 2010, dated 2015)
Marks after values point to notes of the source that are not given here.

System: Hereford-cross beef heifers
Assay: Example II: 3-day letrozole regimen in heifers, ovarian ultrasonography
Assay type: in vivo, cattle
Conditions: for Inter-ovulatory interval / Inter-wave interval: 85 μg/kg/day iv; for Inter-wave interval: mean±SEM
Experimental: Hereford-cross beef heifers, 14 to 20 months of age and weighing between 233 and 404 kg, were chosen from a herd of 50 animals maintained in outdoor corrals at the University of Saskatchewan Goodale Research Farm (52° North and 106° West). Heifers were fed alfalfa/grass hay and grain to gain approximately 1.3 kg per day and had water ad libitum during the experimental period from May to July. Heifers were initially examined by transrectal ultrasonography (7.5 MHz linear-array transducer, Aloka SSD-900; Tokyo, Japan) to confirm that they were postpubertal by the presence of a CL [33].
Four days after follicular ablation, heifers were given 500 μg of cloprostenol (PGF, Estrumate, Schering-Plough Animal Health, Pointe-Claire, QC, Canada) intramuscularly (im) to induce regression of the CL and to synchronize ovulation. The experiment was performed in two replicates (n=20-27 per replicate) and each heifer was used only once. In replicate 1, heifers were assigned randomly at the time of ovulation (Day 0) to the following groups and given a 3-day regimen of letrozole from Days 1 to 3 (n=5), Days 3 to 5 (n=5), Days 5 to 7 (n=5), or no treatment (control group, n=5). In replicate 2, heifers were similarly assigned to groups and given letrozole from Days 1 to 3, (n=5), Days 3 to 5 (n=4), or Days 5 to 7 (n=4), but untreated control heifers were arranged in three sub-groups to serve as contemporaneous controls for each letrozole-group during intensive blood sampling periods (i.e., control Days 1 to 3, n=4; control Days 3 to 5, n=4; and control Days 5 to 7, n=5). For practical purposes, the total dose of letrozole (250 μg/kg) was calculated on the basis of an average weight of 350 kg for all heifers and administered intravenously in daily divided doses over 3 days (85 μg/kg per day). For intravenous injection, letrozole was prepared in 95% ethanol to a final concentration of 5 mg/ml, resulting in an injection volume of 6 mL/day.
Ultrasound examinations were recorded on a sketch sheet in which each ovary and its structures (CL [37] and follicles ≧4 mm in diameter) were represented in size and relative location. Ovulation was defined as the disappearance of any follicle ≧8 mm between two consecutive daily examinations, and was confirmed by the subsequent development of a CL [39]. Follicular wave emergence was defined retrospectively as the day when the dominant follicle was first identified at a diameter of 4 or 5 mm. If the dominant follicle was not identified until it reached 6 or 7 mm, the previous day was considered the day of follicular wave emergence. The dominant follicle of a wave was defined as the largest antral follicle of that wave after deviation, and the first subordinate follicle as the second largest antral follicle originated from the same wave. The day of onset of follicular and luteal regression was defined as the first day of an apparent constant decrease in follicular and luteal diameters, respectively.
Statistical analyses were done using the Statistical Analysis System software package (SAS Learning Edition 9.1, 2006; SAS Institute Inc., Cary, N.C., USA). Time-series hormone data, plasma letrozole concentration, and follicular and luteal diameter profiles were analysed by repeated measures, using the PROC MIXED procedure. The main effects were treatment, time, and their interactions. […] Single point measurements (interwave and interovulatory intervals, interval from ovulation to onset of CL regression, mean and basal LH concentrations, LH pulse amplitude and frequency, and pharmacokinetic parameters for letrozole) were analysed by analysis of variance. […] If significant main effects or interactions (P≦0.05) were detected, Tukey's post-hoc test was used for multiple comparisons.

In the case of `N#Cc1ccc(C(c2ccc(C#N)cc2)n2cncn2)cc1` [Letrozole, letrozole], the Inter-ovulatory interval (Days 1 to 3, n=10) is reported as 20.9 ± 0.46^a days, the Inter-wave interval (Days 1 to 3, n=10) is reported as 8.9 ± 0.35^a days and the Inter-ovulatory interval (Days 3 to 5, n=9) is reported as 20.1 ± 0.49^a days. For the same compound, the Inter-wave interval (Days 3 to 5, n=9) was 10.0 ± 0.37^ab days, the Inter-ovulatory interval (Days 5 to 7, n=9) was 21.2 ± 0.49^a days and the Inter-wave interval (Days 5 to 7, n=9) was 10.7 ± 0.37^b days. The Inter-wave interval (Days 5 to 7, n=9, listed as letrozole) was 10.7 days, the “growth of the extant dominant follicle compared to controls” value (3-day regimen, treatment groups combined (n=28) vs untreated, P<0.01) was “grew longer and to a greater diameter” and the “diameter profile of the largest subordinate follicle compared to controls” value (from here on “diameter profile … compared to controls”) (treated Days 1 to 3, P<0.05) was “larger”. The “diameter profile … compared to controls” value (treated Days 3 to 5) was “intermediate” and the “diameter profile … compared to controls” value (treated Days 5 to 7) was “intermediate”.
